US11292807B2 (OCEANS LTD., priority 2015, dated 2022)
Several values for one entry are separate records, joined by “and”; a condition that tells them apart may be missing. Identical values can stand only once. Like-named read-outs stand apart in the source and are kept apart here.

How the values were obtained:
[1] = system: cancer cell lines; test: Anti-cancer screening of extracts, fractions and compounds (CIMA assay, bioassay-guided fractionation); format: cell-based, human; settings: in vitro
Method: Lead crude extracts were fractionated into five fractions by C-18 SPE column separation using 15 ml each of 5% methanol (fraction 1), 25% methanol (fraction 2), 50% methanol (fraction 3), 100% methanol (fraction 4) and […] (fraction 5). Extracts were fractionated and the resulting fractions were evaluated using CIMA assay. Bio-assay guided fractionation provided detailed information regarding the compound(s) responsible for specific bioactivity.

[2] = system: MDA-MB; settings: MDA-MB
[3] = system: MDA-MB; test: cells; settings: Homo sapiens, read-out: Average cell viability, MDA-MB
[4] = system: PC3; test: CIMA assay, cell viability, PC3; settings: for Fold change in viability AVG: PC3
[5] = in vitro; settings: human, Average cell viability
Method: (§1) Stock solutions of the extracts were prepared in dimethylsulfoxide (DMSO) at 10 mg/mL and stored in 200 μl aliquots at −20° C. until analysis. This preparation ensured that the DMSO delivered to cells in culture never exceeded 1%.
(§2) Prepared extracts were assessed following chronic exposure conditions in which cells were seeded at 2×10^3 cells/well (96 well-plate) and incubated with test compounds for 72 h. Each compound was evaluated over a range of concentrations (0, 10, 25, 50 or 100 μg/ml). Cell proliferation was initially assessed using a standard colorimetric indicator of metabolic activity (CIMA) assay. In this assay, tetrazole reduction was evaluated as a measure of metabolic function that evaluates mitochondrial activity to determine the extent of cell proliferation within a culture. This assay is based on the reduction of yellow tetrazolium salt to purple formazan by mitochondrial reductases enzyme in viable cells, resulting in a color changed that confers a change in absorbance.

[6] = system: SKOV3 (ovarian adenocarcinoma); test: CIMA assay, cell viability, SKOV3; settings: for Fold change in viability AVG: SKOV
[7] = system: CCD1079SK (fibroblast, noncancerous but proliferating); test: CIMA assay, cell viability, CCD1079SK; settings: for Fold change in viability AVG / Average cell viability: CCD
Method: as §1, §2

[8] = system: U373 (glioblastoma-astrocytoma); test: CIMA assay, cell viability, U373; settings: for Fold change in viability AVG / Average cell viability: U373
Method: as §1, §2

[9] = system: THP-1 (acute monocytic leukemia); test: CIMA assay, cell viability, THP-1
[10] = system: A549 (lung carcinoma); test: CIMA assay (colorimetric indicator of metabolic activity), cell viability, A549; settings: for Average cell viability: unit assumed
[11] = system: SKOV3 (ovarian adenocarcinoma)
[12] = system: PC3
[13] = system: MCF7 (mammary gland adenocarcinoma); test: CIMA assay, cell viability, MCF7; format: cell-based, human; settings: SDS 5% control
Method: as §1, §2

CO[C@H]1CC(C)(C)C(/C=C/C(C)=C/C=C/C(C)=C/C=C/C=C(C)/C=C/C=C(C)/C=C/[C@H]2C(C)=C[C@@H](O)CC2(C)C)=C(C)C1=O [C]
anti-cancer activity (in words) [1]: anti-cancer activity

CCCCC/C=C\C/C=C\CCCCCCCC(=O)O [Compound 20, linoleic acid]
MDA-MB AVG ([2]; sample at 1 ug/mL): 1.09
MDA-MB AVG ([2]; sample at 10 ug/mL): 1.04
MDA-MB AVG ([2]; sample at 50 ug/mL): 0.19
MDA-MB AVG ([2]; sample at 100 ug/mL): 0.16
Fold change in viability AVG ([2]; 1 ug/mL): 1.09
Fold change in viability AVG ([2]; 10 ug/mL): 1.04
Fold change in viability AVG ([2]; 50 ug/mL): 0.19
Fold change in viability AVG ([2]; 100 ug/mL): 0.16
viability at 1 µg/mL ([3]; 1 ug/mL): 100%
viability at 10 µg/mL ([3]; 10 ug/mL): 95%
viability at 50 µg/mL ([3]; 50 ug/mL): 17%
viability at 100 µg/mL ([3]; 100 ug/mL): 15%
viability at 1 µg/mL ([4]; Homo sapiens, PC-3, read-out: Average cell viability, PC3, 1 ug/mL): 91%
viability at 10 µg/mL ([4]; Homo sapiens, PC-3, read-out: Average cell viability, PC3, 10 ug/mL): 97%
viability at 50 µg/mL ([4]; Homo sapiens, PC-3, read-out: Average cell viability, PC3, 50 ug/mL): 11%
viability at 100 µg/mL ([4]; Homo sapiens, PC-3, read-out: Average cell viability, PC3, 100 ug/mL): 6%
PC3 AVG ([4]; PC3, sample at 1 ug/mL): 0.94
PC3 AVG ([4]; PC3, sample at 10 ug/mL): 1.00
PC3 AVG ([4]; PC3, sample at 50 ug/mL): 0.12
PC3 AVG ([4]; PC3, sample at 100 ug/mL): 0.06
Fold change in viability AVG ([4]; 1 ug/mL): 0.94
Fold change in viability AVG ([4]; 10 ug/mL): 1.00
Fold change in viability AVG ([4]; 50 ug/mL): 0.12
Fold change in viability AVG ([4]; 100 ug/mL): 0.06
viability at 72 h, 1 ug/mL [5]: 93%
viability at 72 h, 10 ug/mL [5]: 97%
viability at 72 h, 50 ug/mL [5]: 13%
viability at 72 h, 100 ug/mL [5]: 6%
viability at 1 µg/mL ([6]; Homo sapiens, SK-OV-3, read-out: Average cell viability, SKOV, 1 ug/mL): 85%
viability at 10 µg/mL ([6]; Homo sapiens, SK-OV-3, read-out: Average cell viability, SKOV, 10 ug/mL): 88%
viability at 50 µg/mL ([6]; Homo sapiens, SK-OV-3, read-out: Average cell viability, SKOV, 50 ug/mL): 67%
viability at 100 µg/mL ([6]; Homo sapiens, SK-OV-3, read-out: Average cell viability, SKOV, 100 ug/mL): 26%
Fold change in viability AVG ([6]; 1 ug/mL): 0.91
Fold change in viability AVG ([6]; 10 ug/mL): 0.95
Fold change in viability AVG ([6]; 50 ug/mL): 0.73
Fold change in viability AVG ([6]; 100 ug/mL): 0.28
Fold change in viability AVG ([7]; 1 ug/mL): 1.02
Fold change in viability AVG ([7]; 10 ug/mL): 1.07
Fold change in viability AVG ([7]; 50 ug/mL): 0.15
Fold change in viability AVG ([7]; 100 ug/mL): 0.06
viability at 1 µg/mL ([8]; Homo sapiens, U373 MG, read-out: Average cell viability, U373, 1 ug/mL): 87%
viability at 10 µg/mL ([8]; Homo sapiens, U373 MG, read-out: Average cell viability, U373, 10 ug/mL): 89%
viability at 50 µg/mL ([8]; Homo sapiens, U373 MG, read-out: Average cell viability, U373, 50 ug/mL): 7%
viability at 100 µg/mL ([8]; Homo sapiens, U373 MG, read-out: Average cell viability, U373, 100 ug/mL): 5%
U373 AVG ([8]; U373, sample at 1 ug/mL): 0.89
U373 AVG ([8]; U373, sample at 10 ug/mL): 0.90
U373 AVG ([8]; U373, sample at 50 ug/mL): 0.07
U373 AVG ([8]; U373, sample at 100 ug/mL): 0.05
Fold change in viability AVG ([8]; 1 ug/mL): 0.89
Fold change in viability AVG ([8]; 10 ug/mL): 0.90
Fold change in viability AVG ([8]; 50 ug/mL): 0.07
Fold change in viability AVG ([8]; 100 ug/mL): 0.05
viability at 1 µg/mL ([9]; Homo sapiens, THP-1, read-out: Average cell viability, THP-1, 1 ug/mL): 91%
viability at 10 µg/mL ([9]; Homo sapiens, THP-1, read-out: Average cell viability, THP-1, 10 ug/mL): 91%
viability at 50 µg/mL ([9]; Homo sapiens, THP-1, read-out: Average cell viability, THP-1, 50 ug/mL): 21%
viability at 100 µg/mL ([9]; Homo sapiens, THP-1, read-out: Average cell viability, THP-1, 100 ug/mL): 17%
THP-1 AVG ([9]; THP-1, sample at 1 ug/mL): 1.04
THP-1 AVG ([9]; THP-1, sample at 10 ug/mL): 1.03
THP-1 AVG ([9]; THP-1, sample at 50 ug/mL): 0.24
THP-1 AVG ([9]; THP-1, sample at 100 ug/mL): 0.19
Fold change in viability AVG ([9]; THP-1, 1 ug/mL): 1.04
Fold change in viability AVG ([9]; THP-1, 10 ug/mL): 1.03
Fold change in viability AVG ([9]; THP-1, 50 ug/mL): 0.24
Fold change in viability AVG ([9]; THP-1, 100 ug/mL): 0.19
A549 AVG ([10]; A549, sample at 1 ug/mL): 1.11
A549 AVG ([10]; A549, sample at 10 ug/mL): 1.12
A549 AVG ([10]; A549, sample at 50 ug/mL): 0.66
A549 AVG ([10]; A549, sample at 100 ug/mL): 0.13
Fold change in viability AVG ([10]; A549, 1 ug/mL): 1.11
Fold change in viability AVG ([10]; A549, 10 ug/mL): 1.12
Fold change in viability AVG ([10]; A549, 50 ug/mL): 0.66
Fold change in viability AVG ([10]; A549, 100 ug/mL): 0.13
viability at 1 µg/mL ([10]; Homo sapiens, A549, read-out: Average cell viability, A549, 1 ug/mL): 95%
viability at 10 µg/mL ([10]; Homo sapiens, A549, read-out: Average cell viability, A549, 10 ug/mL): 96%
viability at 50 µg/mL ([10]; Homo sapiens, A549, read-out: Average cell viability, A549, 50 ug/mL): 56%
viability at 100 µg/mL ([10]; Homo sapiens, A549, read-out: Average cell viability, A549, 100 ug/mL): 11%

CO[C@H]1CC(C)(C)C(/C=C/C(C)=C/C=C/C(C)=C/C=C/C=C(C)/C=C/C=C(C)/C=C/C2=C(C)C[C@@H](O)CC2(C)C)=C(C)C1=O [D]
anti-cancer activity (in words) [1]: anti-cancer activity

CCCCCCCCCCCCOS(=O)(=O)[O-].[Na+] [SDS, reference compound]
Fold change in viability AVG ([2]; positive control 250 ug/mL): 0.16
Fold change in viability AVG ([2]; positive control SDS 250 ug/mL): 0.16
AVG (CIMA assay, cell viability) [11]: 56.5
viability (AVG) [11]: 78.9%
Fold change in viability AVG ([4]; positive control 250 ug/mL): 0.08
Fold change in viability AVG ([4]; positive control SDS 250 ug/mL): 0.08
viability (AVG) [12]: 77.3%
Fold change in viability AVG ([6]; positive control 250 ug/mL): 0.10
Fold change in viability AVG ([6]; positive control SDS 250 ug/mL): 0.10
AVG (CIMA assay, cell viability) [13]: 49.9
viability (AVG) [13]: 44.1
viability (AVG) ([7]; CCD1079SK, SDS 5% control): 9.4
AVG (CIMA assay, cell viability) ([7]; CCD10795K, SDS 5% control): 11.3
Fold change in viability AVG ([7]; positive control 250 ug/mL): 0.06
Average cell viability ([7]; positive control 250 ug/ml): 5%
Fold change in viability AVG ([7]; positive control SDS 250 ug/mL): 0.06
Average cell viability ([7]; positive control SDS 250 ug/ml): 5%
AVG (CIMA assay, cell viability) ([8]; U373, SDS 5% control): 58.1 and 44.1
viability (AVG) ([8]; U373, SDS 5% control): 48.4
Fold change in viability AVG ([8]; positive control 250 ug/mL): 0.05
Average cell viability ([8]; positive control 250 ug/ml): 4%
Fold change in viability AVG ([8]; positive control SDS 250 ug/mL): 0.05
Average cell viability ([8]; positive control SDS 250 ug/ml): 4%
AVG (CIMA assay, cell viability) ([9]; THP-1, SDS 5% control): 36.2
viability (AVG) ([9]; THP-1, SDS 5% control): 20.3
Fold change in viability AVG ([9]; THP-1, positive control 250 ug/mL): 0.18
Average cell viability ([9]; THP-1, positive control 250 ug/ml): 16%
Fold change in viability AVG ([9]; THP-1, positive control SDS 250 ug/mL): 0.18
Average cell viability ([9]; THP-1, positive control SDS 250 ug/ml): 16%
viability (AVG) ([10]; A549, SDS 5% control): 68.7
Fold change in viability AVG ([10]; A549, positive control 250 ug/mL): 0.13
Average cell viability ([10]; A549, positive control 250 ug/ml): 11%
Fold change in viability AVG ([10]; A549, positive control SDS 250 ug/mL): 0.13
Average cell viability ([10]; A549, positive control SDS 250 ug/ml): 11%
